According to patent US10947263B2, “Cyclic dinucleotides as anticancer agents” (BRISTOL-MYERS SQUIBB COMPANY, priority 2017, dated 2021):
Read-outs that look alike come from different tables or passages of the source.

What was measured:
[1] = target: T1, STING WT (His-TVMV-S-hSTING(155-341)-H232R) (Homo sapiens, UniProt Q86WV6, H232R); experiment: STING HTRF binding assay (time resolved FRET competition), STING WT; details: 20 nM His-tagged STING WT cytoplasmic domain, 200 nM fluorescein-labeled cGAMP analog probe, one hour; read-out: HTRF Binding Assays IC50 WT
T1 construct: STING WT: His-TVMV-S-hSTING(155-341)-H232R
T1 sequence (Q86WV6 with tags, fused parts or gaps H232R): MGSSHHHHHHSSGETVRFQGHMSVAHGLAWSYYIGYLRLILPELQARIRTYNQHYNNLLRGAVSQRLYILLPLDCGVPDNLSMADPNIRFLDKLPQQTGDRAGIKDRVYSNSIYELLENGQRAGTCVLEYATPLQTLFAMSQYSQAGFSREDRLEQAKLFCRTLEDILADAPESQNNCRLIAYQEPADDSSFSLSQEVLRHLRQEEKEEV
Method: (§1) A time resolved FRET-based competition binding assay was used to assess test article binding to STING WT and STING AQ. His-tagged STING cytoplasmic domain (WT or AQ) at a concentration of 20 nM was incubated with 2.5 nM Tb-labeled anti-His antibody, test compound, and fluorescein-labeled cGAMP analog probe (BioLog cat. no. C195) at a concentration of 200 nM (STING WT) or 40 nM (STING AQ) in PBS containing 0.005% Tween-20 and 0.1% BSA for one hour. Fluorescence at 495 nm and 520 nm was measured using an EnVision microplate reader to quantify FRET between Tb-labeled anti-His antibody and fluorescein-labeled probe. Background was defined as the signal obtained in the absence of STING protein, and background subtracted FRET ratios were normalized to the maximum signal obtained in the absence of test compound. These values were converted to a percent inhibition. Percent inhibition was determined for test compounds at 11 concentrations. The IC50, defined as the concentration of competing test compound needed to reduce specific binding of the probe by 50%, was calculated using the 4 parameter logistic equation to fit the data
STING WT: His-TVMV-S-hSTING(155-341)-H232R • […] […] […] […] LRQEEKEEV (SEQ ID NO:1)

[2] = tested on: STING / IRF pathway in THP1-Dual cells; experiment: STING THP1 Reporter Assay, IRF pathway (secreted Lucia luciferase, QUANTI-Luc); type: cell-based; details: 10% human plasma, 100% activation = 100 μM cGAMP, luciferase readout, read-out: THP1 Reporter Assays EC50 IRF3
Excerpt: (§2) THP1-Dual™ cells were derived from the human THP-1 monocyte cell line by stable integration of two inducible reporter constructs. To this end, THP1-Dual™ cells allow the simultaneous study of the […], by monitoring the activity of SEAP, and the IRF pathway by assessing the activity of a secreted luciferase (Lucia). Both reporter proteins are readily measurable in the cell culture supernatant when using QUANTI-Blue™, a SEAP detection reagent, and QUANTI-Luc™, a luciferase detection reagent.
(§3) THP1-Dual™ cells induce the activation of NF-κB in response to STING agonists. They also trigger the IRF pathway upon stimulation with STING agonists, such as cGAMP. Here, the THP-1-Dual cells were used to assess STING binders for function on the cellular level.
(§4) Serial dilutions of compounds in DMSO were added to low volume 384 well plates at 100 nl/well using an ECHO acoustic dispenser (Labcyte, model 550) to achieve final starting concentration of 100 μM in cell suspension. THP-1 Dual™ STING reporter cells (Invivogen, Dual cells cat #THPD-nfis) were added to the plates with compounds at 15,000 cells in 10 μL per well in RPMI media (Gibco, cat #11875) containing 10% human plasma in a low volume 384-well black wall clear bottom tissue culture plate (Corning, cat #3542) for SEAP assay and low volume solid white plate (Corning, cat #3826) for luciferase assay. One column of the plate was reserved for treatment with cGAMP at 100 μM for 100% activation calculation and one column for no treatment (DMSO only) for baseline activation. Plates were then incubated in 37 OC incubator at 5% CO2 for 20 hours.
(§5) In the SEAP assay, […] 2× QuantiBlue (Invivogen, cat #Rep-qb2) is added to 384 well black plates seeded with THP1 cells and incubated at 37° C. for 2 hours. Plates were read on the Envision (Perkin Elmer) at 620 nm wavelength (OD620). In the luciferase assay, 5 μl of Quantiluc (Invivogen, Rep-qlc2) is added to white 384 well plates seeded with THP1 cells and read at 5 minutes on the Envision (Perkin Elmer) using a luminescence protocol (RLU). For both cell lines, 100% activation was determined by value (RLU) of THP-1 Dual STING cells stimulated with 100 μM cGAMP (Invivogen, cat #TLRL-NACGA23-5).

[3] = tested on: STING / NF-κB pathway in THP1-Dual cells; experiment: STING THP1 Reporter Assay, NF-κB pathway (SEAP, QUANTI-Blue); type: cell-based; details: 10% human plasma, 100% activation = 100 μM cGAMP, SEAP readout, read-out: THP1 Reporter Assays EC50 NFkB
Excerpt: as §2, §3, §4, §5

[4] = target: T2, STING AQ (His-TVMV-S-hSTING(155-341)-G230A-R293Q) (Homo sapiens, UniProt Q86WV6, G230A/H232R/R293Q); experiment: STING HTRF binding assay (time resolved FRET competition), STING AQ; details: 20 nM His-tagged STING AQ cytoplasmic domain, 40 nM fluorescein-labeled cGAMP analog probe, one hour; read-out: HTRF Binding Assays IC50 AQ
T2 construct: STING AQ: His-TVMV-S-hSTING(155-341)-G230A-R293Q
T2 sequence (Q86WV6 with tags, fused parts or gaps G230A/H232R/R293Q): as the sequence (Q86WV6 with tags, fused parts or gaps H232R) above, with G99A, R162Q counted along it
Method: as §1
STING AQ: His-TVMV-S-hSTING(155-341)-G230A-R293Q • […] […] […] […] LRQEEKEEV (SEQ ID NO:2)

SMILES | IC50 [1] [nM] | EC50 ([2]; 20 hours) [nM] | EC50 ([3]; 20 hours) [nM] | IC50 [4] [nM] | EC50 ([2]; Homo sapiens, THP1-Dual, 20 h) [nM] | EC50 ([3]; Homo sapiens, THP1-Dual, 20 h) [nM]
NC(=O)c1cccc2c1nnn2[C@@H]1O[C@@H]2COP(=O)(S)O[C@H]3[C@@H](F)[C@H](n4cnc5c(N)ncnc54)O[C@@H]3COP(=O)(S)O[C@@H]1[C@@H]2F (single isomer, unassigned) [Example 10-1] | 20 | 1330 | 2220 | 5 | – | –
NC(=O)c1cccc2c1nnn2[C@@H]1O[C@@H]2COP(=O)(S)O[C@H]3[C@@H](F)[C@H](n4cnc5c(N)ncnc54)O[C@@H]3COP(=O)(S)O[C@@H]1[C@@H]2F (single isomer, unassigned) [Example 10-2] | 100 | 46500 | 76200 | 10 | – | –
NC(=O)c1cccc2c1nnn2[C@@H]1O[C@@H]2COP(=O)(S)O[C@H]3[C@@H](F)[C@H](n4cnc5c(N)ncnc54)O[C@@H]3COP(=O)(S)O[C@@H]1[C@@H]2F (single isomer, unassigned) [Example 10-3] | 50 | 5100 | 8900 | 5 | – | –
NC(=O)c1cccc2c1nnn2[C@@H]1O[C@@H]2COP(=O)(S)O[C@H]3[C@@H](F)[C@H](n4cnc5c(N)ncnc54)O[C@@H]3COP(=O)(S)O[C@@H]1[C@@H]2F (single isomer, unassigned) [Example 10-4] | 10 | 300 | 900 | 2 | – | –
Nc1ncnc2c1ncn2[C@@H]1O[C@@H]2COP(=O)(S)O[C@@H]3[C@H](F)[C@@H](COP(=O)(S)O[C@H]2[C@H]1F)O[C@H]3n1nnc2c([N+](=O)[O-])cccc21 (single isomer, unassigned) [Example 11-1] | 10 | 1200 | 2100 | 2 | – | –
Nc1ncnc2c1ncn2[C@@H]1O[C@@H]2COP(=O)(S)O[C@@H]3[C@H](F)[C@@H](COP(=O)(S)O[C@H]2[C@H]1F)O[C@H]3n1nnc2c([N+](=O)[O-])cccc21 (single isomer, unassigned) [Example 11-2] | 10 | 130 | 300 | 3 | – | –
Nc1ncnc2c1ncn2[C@@H]1O[C@@H]2COP(=O)(S)O[C@@H]3[C@H](F)[C@@H](COP(=O)(S)O[C@H]2[C@H]1F)O[C@H]3n1nnc2c([N+](=O)[O-])cccc21 (single isomer, unassigned) [Example 11-3] | 50 | 4000 | 9700 | 10 | – | –
Nc1ncnc2c1ncn2[C@@H]1O[C@@H]2COP(=O)(S)O[C@@H]3[C@H](F)[C@@H](COP(=O)(S)O[C@H]2[C@H]1F)O[C@H]3n1nnc2c([N+](=O)[O-])cccc21 (single isomer, unassigned) [Example 11-4] | 150 | 21100 | 34600 | 20 | – | –
Nc1ncnc2c1ncn2[C@@H]1O[C@@H]2COP(=O)(S)O[C@@H]3[C@H](F)[C@@H](COP(=O)(S)O[C@H]2[C@H]1F)O[C@H]3n1nnc2c(N)cccc21 (single isomer, unassigned) [Example 12-1] | 80 | – | – | 10 | 1600 | 5400
Nc1ncnc2c1ncn2[C@@H]1O[C@@H]2COP(=O)(S)O[C@@H]3[C@H](F)[C@@H](COP(=O)(S)O[C@H]2[C@H]1F)O[C@H]3n1nnc2c(N)cccc21 (single isomer, unassigned) [Example 13-1] | 70 | 1200 | 4900 | 10 | – | –
O=[N+]([O-])c1cccc2c1nnn2[C@@H]1O[C@@H]2COP(=O)(S)O[C@H]3[C@@H](F)[C@H](n4cnc5c4ncn4ccnc54)O[C@@H]3COP(=O)(S)O[C@@H]1[C@@H]2O (single isomer, unassigned) [Example 15-1] | 20 | 1000 | 2100 | 10 | – | –
O=[N+]([O-])c1cccc2c1nnn2[C@@H]1O[C@@H]2COP(=O)(S)O[C@H]3[C@@H](F)[C@H](n4cnc5c4ncn4ccnc54)O[C@@H]3COP(=O)(S)O[C@@H]1[C@@H]2O (single isomer, unassigned) [Example 15-2] | 1750 | 63400 | 96800 | 50 | – | –
NC(=O)c1cccc2c1nnn2[C@@H]1O[C@@H]2COP(=O)(O)O[C@H]3[C@@H](F)[C@H](n4cnc5c4ncn4ccnc54)O[C@@H]3COP(=O)(S)O[C@@H]1[C@@H]2F (single isomer, unassigned) [Example 16-1] | 90 | 2200 | 7700 | 10 | – | –
NC(=O)c1cccc2c1nnn2[C@@H]1O[C@@H]2COP(=O)(O)O[C@H]3[C@@H](F)[C@H](n4cnc5c4ncn4ccnc54)O[C@@H]3COP(=O)(S)O[C@@H]1[C@@H]2F (single isomer, unassigned) [Example 16-2] | 210 | 12700 | 73900 | 10 | – | –
C=C1[C@H]2OP(=O)(S)OC[C@H]3O[C@@H](n4cnc5c(N)ncnc54)[C@H](F)[C@@H]3OP(=O)(S)OC[C@H]1O[C@H]2n1nnc2c(C(N)=O)cccc21 (single isomer, unassigned) [Example 22-1] | 10 | – | – | 10 | 2300 | 5100
C=C1[C@H]2OP(=O)(S)OC[C@H]3O[C@@H](n4cnc5c(N)ncnc54)[C@H](F)[C@@H]3OP(=O)(S)OC[C@H]1O[C@H]2n1nnc2c(C(N)=O)cccc21 (single isomer, unassigned) [Example 22-2] | 70 | 3200 | 10000 | 10 | – | –
NC(=O)c1cccc2c1nnn2[C@@H]1O[C@@H]2COP(=O)(O)O[C@H]3[C@@H](F)[C@H](n4cnc5c(N)ncnc54)O[C@@H]3COP(=O)(O)O[C@@H]1[C@@H]2O [Example 1, 1-[(1R,6R,8R,9R,10R,15R,17R,18R)-8-(6-amino-9H-purin-9-yl)-9-fluoro-3,12,18-trihydroxy-3,12-dioxo-2,4,7,11,13,16-hexaoxa-3λ^5,12λ^5-diphosphatricyclo[13.2.1.0^6,10]octadecan-17-yl]-1H-1,2,3-benzotriazole-4-carboxamide] | 10 | – | – | 3 | 1500 | 3200
